These results are taken from patent US9675564B2, “Composition based on ubidecarenone” (Asoltech Srl, priority 2011, dated 2017).

For orientation: solubility means the concentration that dissolves in the medium under given conditions. Low values mean a poorly soluble substance, high ones a readily soluble substance.

Data set [1] is described as follows: Solubility in water at 37° C. (excess powder, CoQ10 passing into solution by UV or HPLC). It counts as physicochemical. The conditions noted are these: thermodynamic from solid. The protocol:
The solubility in water at 37° C. (physiological temperature) of the composition according to the present invention was compared with that of the compositions in the examples of comparison.
Verification is carried out after 1 hour and 24 hours (balanced) using the suitable analytical method (for example UV or HPLC spectrophotometry) of the maximum quantity of coenzyme Q10 that passes into the solution.

In a further data set the test system is H9C2 cells. Briefly: Absorption in cardiomyoblasts: intracell penetration and penetration of the mitochondrial membrane, CoQ10 quantified by HPLC. It counts as cell-based, rats. The conditions noted are these: cultured cells after administration; FIG. 2. The procedure:
Despite the large number of clinical studies on the effects of Coenzyme Q10 supplementation, there are very few experimental data concerning the content of coenzyme Q10 in mitochondria and the cell energy condition after supplementation. Probably, controversial results of clinical and in vitro studies are mainly due to the bio-availability of the form of coenzyme Q10 used.
For this analysis, T67 cells of human astrocytoma and H9C2 cells from rats, deriving from the heart, were cultured in a Dulbecco's modified Eagle medium (DMEM), supplemented with 10% of fetal bovine serum (FBS), 100 Ul/ml of penicillin, 100 μg/ml of streptomycin and 40 μg/ml of gentamicin, in an atmosphere of 5% CO2 at 37° C., with saturation humidity. The vitality of the cells and their number were measured using the exclusion method with Tripan blue (Lowry et al.). The mitochondria were isolated using known procedures (Chomyn, 1996). The cells treated were washed carefully with PBS before the extraction procedures. The extraction of the coenzyme Q10 from the isolated cells and mitochondria was performed as described by Takada et al. (Takada et al., 1984). The quantification of the coenzyme Q10 was done by means of HPLC analysis. […]

Each structure is given as a SMILES string. Converted amounts (≈) assume the structure as drawn.

`COC1=C(OC)C(=O)C(C/C=C(\C)CC/C=C(\C)CC/C=C(\C)CC/C=C(\C)CC/C=C(\C)CC/C=C(\C)CC/C=C(\C)CC/C=C(\C)CC/C=C(\C)CCC=C(C)C)=C(C)C1=O` [CoQ10, ubidecarenone] showed a solubility at 1 h in data set [1] (after 1 hour) of 1 µg/mL (≈ 1.16 µM). This compound returned a solubility at 24 h in data set [1] (after 24 hours (balanced)) of 4 µg/mL (≈ 4.63 µM). Besides, the “CoQ10 passing from the whole cells to the mitochondria” value with H9C2 cells came to 4%.
